Laboratory results taken from patent publication US8729030B2 (Affymax, Inc., priority 2003, dated 2014).
Bridges are numbered along the chain shown (N, C = ends). Where no end group is shown, it is not given here. [ ]: non-standard residue; d: D form. 1Nal = N[C@@H](Cc1cccc2ccccc12)C(=O)O; Sar = CNCC(=O)O

Molecular target: chimeric receptor comprising the extra-cellular portion of the human EPO receptor to the intra-cellular portion of the human GCSF receptor
Assay: Reporter assay (Baf3/EpoR/GCSFR fos/lux luciferase)
Type: cell-based
Settings: Table 6; Baf3/EpoR/GCSFR fos/lux cells, 4 h
Source text: This assay is based upon a on a murine pre-B-cell line derived reporter cell, Baf3/EpoR/GCSFR fos/lux. This reporter cell line expresses a chimeric receptor comprising the extra-cellular portion of the human EPO receptor to the intra-cellular portion of the human GCSF receptor. This cell line is further transfected with a fos promoter-driven luciferase reporter gene construct. Activation of this chimeric receptor through addition of erythropoietic agent results in the expression of the luciferase reporter gene, and therefore the production of light upon addition of the luciferase substrate luciferin. Thus, the level of EPO-R activation in such cells may be quantitated via measurement of luciferase activity.
The Baf3/EpoR/GCSFR fos/lux cells are cultured in DMEM/F12 medium (Gibco) supplemented with 10% fetal bovine serum (FBS; Hyclone), 10% WEHI-3 supernatant (the supernatant from a culture of WEHI-3 cells, ATCC #TIB-68), and penicillin/streptomycin. […] Following a 5-minute incubation, light emission is measured on a Packard Topcount Luminometer (Packard Instrument Co., Downers Grove, Ill.). Light counts are plotted relative to test peptide concentration and analysed using Graph Pad software. The concentration of test peptide that results in a half-maximal emission of light is recorded as the EC50 [See Table 2: Reporter EC50]. […]

Chain of chimeric receptor comprising the extra-cellular portion of the human EPO receptor to the intra-cellular portion of the human GCSF receptor (P19235 25-250 limits assumed, change not shown): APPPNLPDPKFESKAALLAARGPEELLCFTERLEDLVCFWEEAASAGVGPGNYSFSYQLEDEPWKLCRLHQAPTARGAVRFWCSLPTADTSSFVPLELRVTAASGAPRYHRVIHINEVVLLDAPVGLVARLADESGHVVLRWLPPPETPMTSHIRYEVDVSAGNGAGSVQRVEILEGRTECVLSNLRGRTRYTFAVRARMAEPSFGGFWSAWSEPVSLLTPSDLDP

With “peptide dimer of monomers (AcG)GLYACHMGPIT(1-nal)VCQPLR(MeG)K (SEQ ID NO: 2) (Ac-GGLYACHMGPIT[1Nal]VCQPLR[Sar]K; disulfide 6-15 (inferred); not fully specified (residue 1); printed as (AcG)GLYACHMGPIT(1-nal)VCQPLR(MeG)K; also: homodimer, dimer linkage not given here) [Peptide I]” the EC50 was 0.195 nM.
